pIC50: −log10 of the molar value.
Test system: IL-1β production in PMA-differentiated THP-1 cells
Assay: IL-1β production in PMA-differentiated THP-1 cells stimulated with gramicidin (hTHP-1 assay containing 2% fetal bovine serum; Procedures 1-3)
Assay type: cell-based, human
Settings: Homo sapiens, THP-1, hTHP-1 assay containing 2% fetal bovine serum; class symbols; read-out: hTHP-1 IC50 (Average IC50 of compounds in hTHP-1 assay)
Outline: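 THP-1 cells differentiated with PMA (20 ng/ml, 16-18 h), replated in 2% FBS RPMI (50,000 cells/well), preincubated 1 h with compound (top final 100 μM, 3-fold steps, 0.37% DMSO), then stimulated 2 h with gramicidin (5 μM). Supernatant IL-1β measured by HTRF.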

pIC50	Compound
6.00 to 6.70	CC(C)c1c(F)c(C#N)cc(C2CC2)c1CC(=O)N=S(N)(=O)c1ccc(CN(C)C)cc1F (stereo not drawn) [Example 128, N-(amino(4-((dimethylamino)methyl)-2-fluorophenyl)(oxo)-λ^6-sulfaneylidene)-2-(4-cyano-6-cyclopropyl-3-fluoro-2-isopropylphenyl)acetamide]
6.70 to 7.40	Cc1sc(S(N)(=O)=NC(=O)Cc2c(C(C)C)ccc(F)c2C(C)C)cc1C(C)(C)O (stereo not drawn) [Example 129, N-(amino(4-(2-hydroxypropan-2-yl)-5-methylthiophen-2-yl)(oxo)-λ^6-sulfaneylidene)-2-(3-fluoro-2,6-diisopropylphenyl)acetamide]
5.30 to 6.00	CC(C)c1ccc(F)c(C(C)C)c1CC(=O)N=S(N)(=O)c1ncc(C(C)(C)O)s1 (stereo not drawn) [Example 130, N-(amino(5-(2-hydroxypropan-2-yl)thiazol-2-yl)(oxo)-λ^6-sulfaneylidene)-2-(3-fluoro-2,6-diisopropylphenyl)acetamide]
5.30 to 6.00	CC(C)c1cc2c(c(C(C)C)c1CC(=O)N=S(N)(=O)c1cnc(C(C)(C)O)s1)COC2 (stereo not drawn) [Example 132, N-(amino(2-(2-hydroxypropan-2-yl)thiazol-5-yl)(oxo)-λ^6-sulfaneylidene)-2-(4,6-diisopropyl-1,3-dihydroisobenzofuran-5-yl)acetamide]
6.00 to 6.70	CC(C)c1cc(C#N)c(F)c(C(C)C)c1CC(=O)N=S(N)(=O)c1nc(C(C)(C)O)cs1 (stereo not drawn) [Example 133, N-(amino(4-(2-hydroxypropan-2-yl)thiazol-2-yl)(oxo)-λ^6-sulfaneylidene)-2-(4-cyano-3-fluoro-2,6-diisopropylphenyl)acetamide]
5.30 to 6.00	CC(C)c1cc2c(c(C(C)C)c1CC(=O)N=S(N)(=O)c1ccc(CN(C)C)cc1)COC2 (stereo not drawn) [Example 134]
5.30 to 6.00	CC(C)c1ccc2c(c1CC(=O)N=S(N)(=O)c1cnc(C(C)(C)O)s1)CCC2 (stereo not drawn) [Example 135, N-(amino(2-(2-hydroxypropan-2-yl)thiazol-5-yl)(oxo)-λ^6-sulfaneylidene)-2-(5-isopropyl-2,3-dihydro-1H-inden-4-yl)acetamide]
6.00 to 6.70	CC(C)c1cc(-c2ccc3ccccc3c2)cc(C(C)C)c1CC(=O)N=S(N)(=O)c1ccc(CN(C)C)cc1 (stereo not drawn) [Example 136, N-(amino(4-((dimethylamino)methyl)phenyl)(oxo)-λ^6-sulfaneylidene)-2-(2,6-diisopropyl-4-(naphthalen-2-yl)phenyl)acetamide]
6.00 to 6.70	CC(C)c1cc(-c2ccc3c(c2)CCOC3)cc(C(C)C)c1CC(=O)N=S(N)(=O)c1sc(C(C)(C)O)nc1CO (stereo not drawn) [Example 137, N-(amino(4-(hydroxymethyl)-2-(2-hydroxypropan-2-yl)thiazol-5-yl)(oxo)-λ^6-sulfaneylidene)-2-(4-(isochroman-6-yl)-2,6-diisopropylphenyl)acetamide]
5.30 to 6.00	CC(C)c1cc(-c2ccc3c(c2)CCOC3)cc(C(C)C)c1CC(=O)N=S(=O)(NC(=O)OC(C)(C)C)c1cnc(C(C)(C)O)s1 (stereo not drawn) [Example 138, tert-butyl (2-(2-hydroxypropan-2-yl)-N-(2-(4-(isochroman-6-yl)-2,6-diisopropylphenyl)acetyl)thiazole-5-sulfonimidoyl)carbamate]
6.00 to 6.70	CC(C)c1cc(-c2ccc3c(c2)CCOC3)cc(C(C)C)c1CC(=O)N=S(N)(=O)c1cnc(C(C)(C)O)s1 (stereo not drawn) [Example 139, N-(amino(2-(2-hydroxypropan-2-yl)thiazol-5-yl)(oxo)-λ^6-sulfaneylidene)-2-(4-(isochroman-6-yl)-2,6-diisopropylphenyl)acetamide]
6.00 to 6.70	CC(C)c1cc(COC2CCCC2)cc(C(C)C)c1CC(=O)N=S(=O)(NC(=O)OC(C)(C)C)c1cnc(C(C)(C)O)s1 (stereo not drawn) [Example 140, tert-butyl (N-(2-(4-((cyclopentyloxy)methyl)-2,6-diisopropylphenyl)acetyl)-2-(2-hydroxypropan-2-yl)thiazole-5-sulfonimidoyl)carbamate]
6.70 to 7.40	CC(C)c1cc(COC2CCCC2)cc(C(C)C)c1CC(=O)N=S(N)(=O)c1cnc(C(C)(C)O)s1 (stereo not drawn) [Example 141, N-(amino(2-(2-hydroxypropan-2-yl)thiazol-5-yl)(oxo)-λ^6-sulfaneylidene)-2-(4-((cyclopentyloxy)methyl)-2,6-diisopropylphenyl)acetamide]
5.30 to 6.00	CC(C)c1cc2c(c(C(C)C)c1CC(=O)N=S(N)(=O)c1cnc(C(C)(C)O)s1)CCC2 (stereo not drawn) [Example 142, N-(amino(2-(2-hydroxypropan-2-yl)thiazol-5-yl)(oxo)-λ^6-sulfaneylidene)-2-(4,6-diisopropyl-2,3-dihydro-1H-inden-5-yl)acetamide]
5.30 to 6.00	COc1cc(C(C)C)c(CC(=O)NS(=O)(=O)c2ncc(C(C)(C)O)s2)c(C(C)C)n1 [Example 143, 2-(2,4-diisopropyl-6-methoxypyridin-3-yl)-N-((5-(2-hydroxypropan-2-yl)thiazol-2-yl)sulfonyl)acetamide]
4.52 to 5.30	CC(C)c1ncc(F)c(C(C)C)c1CC(=O)N=S(N)(=O)c1ncc(C(C)(C)O)s1 (stereo not drawn) [Example 144, N-(amino(5-(2-hydroxypropan-2-yl)thiazol-2-yl)(oxo)-λ^6-sulfaneylidene)-2-(5-fluoro-2,4-diisopropylpyridin-3-yl)acetamide]
6.00 to 6.70	CC(C)c1ncc(F)c(C(C)C)c1CC(=O)N=S(N)(=O)c1cc(C(C)(C)O)cs1 (stereo not drawn) [Example 145, N-(amino(4-(2-hydroxypropan-2-yl)thiophen-2-yl)(oxo)-λ^6-sulfaneylidene)-2-(5-fluoro-2,4-diisopropylpyridin-3-yl)acetamide]
4.52 to 5.30	CC(C)c1ncc(F)c(C(C)C)c1CC(=O)N=S(N)(=O)c1cnc(C(C)(C)O)s1 (stereo not drawn) [Example 146, N-(amino(2-(2-hydroxypropan-2-yl)thiazol-5-yl)(oxo)-λ^6-sulfaneylidene)-2-(5-fluoro-2,4-diisopropylpyridin-3-yl)acetamide]
5.30 to 6.00	CC(C)c1ncc(F)c(C(C)C)c1CC(=O)N=S(N)(=O)c1nc(C(C)(C)O)cs1 (stereo not drawn) [Example 147, N-(amino(4-(2-hydroxypropan-2-yl)thiazol-2-yl)(oxo)-λ^6-sulfaneylidene)-2-(5-fluoro-2,4-diisopropylpyridin-3-yl)acetamide]
4.52 to 5.30	CC(C)c1ncc(F)c(C(C)C)c1CC(=O)N=S(N)(=O)c1ccn(C(C)C)n1 (stereo not drawn) [Example 148, N-(amino(1-isopropyl-1H-pyrazol-3-yl)(oxo)-λ^6-sulfaneylidene)-2-(5-fluoro-2,4-diisopropylpyridin-3-yl)acetamide]
6.00 to 6.70	CC(C)c1ncc(F)c(C(C)C)c1CC(=O)N=S(N)(=O)c1sc(C(C)(C)O)cc1F (stereo not drawn) [Example 149, N-(amino(3-fluoro-5-(2-hydroxypropan-2-yl)thiophen-2-yl)(oxo)-λ^6-sulfaneylidene)-2-(5-fluoro-2,4-diisopropylpyridin-3-yl)acetamide]
4.52 to 5.30	Cc1ncc(C(C)C)c(CC(=O)N=S(N)(=O)c2sc(C(C)(C)O)cc2F)c1C(C)C (stereo not drawn) [Example 150, N-(amino(3-fluoro-5-(2-hydroxypropan-2-yl)thiophen-2-yl)(oxo)-λ^6-sulfaneylidene)-2-(3,5-diisopropyl-2-methylpyridin-4-yl)acetamide]
6.00 to 6.70	CC(C)c1cc(C#N)nc(C(C)C)c1CC(=O)N=S(N)(=O)c1cc(C(C)(C)O)cs1 (stereo not drawn) [Example 151, N-(amino(4-(2-hydroxypropan-2-yl)thiophen-2-yl)(oxo)-λ^6-sulfaneylidene)-2-(6-cyano-2,4-diisopropylpyridin-3-yl)acetamide]
6.00 to 6.70	COCc1cc(C(C)C)c(CC(=O)N=S(N)(=O)c2cc(C(C)(C)O)cs2)c(C(C)C)n1 (stereo not drawn) [Example 152, N-(amino(4-(2-hydroxypropan-2-yl)thiophen-2-yl)(oxo)-λ^6-sulfaneylidene)-2-(2,4-diisopropyl-6-(methoxymethyl)pyridin-3-yl)acetamide]
5.30 to 6.00	CC(C)c1nc(C(F)(F)F)nc(C(C)C)c1CC(=O)N=S(N)(=O)c1cnc(C(C)(C)O)s1 (stereo not drawn) [Example 153, N-(amino(2-(2-hydroxypropan-2-yl)thiazol-5-yl)(oxo)-λ^6-sulfaneylidene)-2-(4,6-diisopropyl-2-(trifluoromethyl)pyrimidin-5-yl)acetamide]
4.52 to 5.30	CC(C)c1cnc(F)c(C(C)C)c1CC(=O)N=S(N)(=O)c1cnc(C(C)(C)O)s1 (stereo not drawn) [Example 154, N-(amino(2-(2-hydroxypropan-2-yl)thiazol-5-yl)(oxo)-λ^6-sulfaneylidene)-2-(2-fluoro-3,5-diisopropylpyridin-4-yl)acetamide]
6.70 to 7.40	CC(C)c1cc2c(c(C(C)C)c1CC(=O)N=S(N)(=O)c1cc(C(C)(C)O)cs1)COC2 (stereo not drawn) [Example 220, N-(amino(4-(2-hydroxypropan-2-yl)thiophen-2-yl)(oxo)-λ^6-sulfaneylidene)-2-(4,6-diisopropyl-1,3-dihydroisobenzofuran-5-yl)acetamide]
4.52 to 5.30	CC(C)c1cc2c(c(C(C)C)c1CC(=O)N=S(N)(=O)c1ccn(C(C)C)n1)COC2 (stereo not drawn) [Example 221, N-(amino(1-isopropyl-1H-pyrazol-3-yl)(oxo)-λ^6-sulfaneylidene)-2-(4,6-diisopropyl-1,3-dihydroisobenzofuran-5-yl)acetamide]
6.00 to 6.70	CC(C)c1cc(C#N)c(F)c(C(C)C)c1CC(=O)N=S(N)(=O)c1ncc(C(C)(C)O)s1 (stereo not drawn) [compound 13, 2-(4-cyano-3-fluoro-2,6-diisopropylphenyl)-N-(5-(2-hydroxypropan-2-yl)thiazol-2-ylsulfonimidoyl)acetamide]
4.52 to 5.30	COc1ccc(CNS(=O)(=NC(=O)Cc2c(C(C)C)cc(F)cc2C(C)C)c2ncc(C(C)(C)O)s2)cc1 (stereo not drawn) [compound 41, 2-(4-fluoro-2,6-diisopropylphenyl)-N-(5-(2-hydroxypropan-2-yl)-N-(4-methoxybenzyl)thiazole-2-sulfonimidoyl)acetamide]

Source: patent publication US11370763B2, “Compounds and compositions for treating conditions associated with NLRP activity” (Novartis AG, priority 2017, dated 2022)
